Test results from ChEMBL document CHEMBL5346921, “Discovery of novel benzamide derivatives bearing benzamidophenyl and phenylacetamidophenyl scaffolds as potential antitumor agents via targeting PARP-1” (Eur J Med Chem, 2023).
The source made the active and inactive calls. The rule behind the calls is not given here.

Tests used:
DLD-1 = assay: Antiproliferative activity against human DLD-1 cells assessed as reduction in cell viability incubated for 48 hrs by MTT assay; assay type: functional, cell-based; conditions: DLD-1, 48 h
[1] = target: Poly [ADP-ribose] polymerase 1 (Homo sapiens, UniProt P09874); assay: Inhibition of human PARP-1 by ELISA
HCT-116 [2] = assay: Inhibition of cell migration in human HCT-116 cells at 1 uM incubated for 24 hrs by wound healing assay; assay type: functional
HCT-116 [3] = assay: Inhibition of cell migration in human HCT-116 cells at 3 uM incubated for 24 hrs by wound healing assay; assay type: functional
HCT-116 [4] = assay: Induction of cell cycle arrest in human HCT-116 cells assessed as accumulation of cells at G0/G1 phase at 1.5 uM incubated for 48 hrs by PI staining based flow cytometry (reference value: 62.1%); assay type: functional
HCT-116 [5] = assay: Induction of cell cycle arrest in human HCT-116 cells assessed as accumulation of cells at S phase at 7.5 uM incubated for 48 hrs by PI staining based flow cytometry (reference value: 14.5%); assay type: functional
HCT-116 [6] = assay: Induction of cell cycle arrest in human HCT-116 cells assessed as accumulation of cells at G2/M phase at 7.5 uM incubated for 48 hrs by PI staining based flow cytometry (reference value: 24.7%); assay type: functional
HCT-116 [7] = assay: Induction of cell cycle arrest in human HCT-116 cells assessed as accumulation of cells at S phase at 0.3 uM incubated for 72 hrs by PI staining based flow cytometry (reference value: 16.7%); assay type: functional
HCT-116 [8] = assay: Induction of cell cycle arrest in human HCT-116 cells assessed as accumulation of cells at G2/M phase at 0.3 uM incubated for 72 hrs by PI staining based flow cytometry (reference value: 25.4%); assay type: functional
HCT-116 [9] = assay: Induction of cell cycle arrest in human HCT-116 cells assessed as accumulation of cells at G0/G1 phase at 1.5 uM incubated for 72 hrs by PI staining based flow cytometry (reference value: 57.2%); assay type: functional
HCT-116 [10] = assay: Induction of cell cycle arrest in human HCT-116 cells assessed as accumulation of cells at G2/M phase at 1.5 uM incubated for 72 hrs by PI staining based flow cytometry (reference value: 25.4%); assay type: functional
HCT-116 [11] = assay: Induction of cell cycle arrest in human HCT-116 cells assessed as accumulation of cells at G0/G1 phase at 7.5 uM incubated for 72 hrs by PI staining based flow cytometry (reference value: 57.2%); assay type: functional
HCT-116 [12] = assay: Induction of cell cycle arrest in human HCT-116 cells assessed as accumulation of cells at S phase at 7.5 uM incubated for 72 hrs by PI staining based flow cytometry (reference value: 16.7%); assay type: functional
HCT-116 [13] = assay: Induction of cell cycle arrest in human HCT-116 cells assessed as accumulation of cells at G2/M phase at 7.5 uM incubated for 72 hrs by PI staining based flow cytometry (reference value: 25.4%); assay type: functional
HCT-116 [14] = assay: Induction of apoptosis in human HCT-116 cells assessed as viable cells at 0.3 uM incubated for 48 hrs by AnnexinV-FITC/PI staining based flow cytometry (reference value: 97.89%); assay type: functional; conditions: read-out: Activity
HCT-116 [15] = assay: Induction of apoptosis in human HCT-116 cells assessed as necrotic cells at 0.3 uM incubated for 48 hrs by AnnexinV-FITC/PI staining based flow cytometry (reference value: 0%); assay type: functional
HCT-116 [16] = assay: Induction of apoptosis in human HCT-116 cells assessed as late apoptotic cells at 1.5 uM incubated for 48 hrs by AnnexinV-FITC/PI staining based flow cytometry (reference value: 0%); assay type: functional
HCT-116 [17] = assay: Induction of apoptosis in human HCT-116 cells assessed as necrotic cells at 1.5 uM incubated for 48 hrs by AnnexinV-FITC/PI staining based flow cytometry (reference value: 0%); assay type: functional
HCT-116 [18] = assay: Induction of apoptosis in human HCT-116 cells assessed as late apoptotic cells at 7.5 uM incubated for 48 hrs by AnnexinV-FITC/PI staining based flow cytometry (reference value: 0%); assay type: functional
HCT-116 [19] = assay: Induction of apoptosis in human HCT-116 cells assessed as viable cells at 0.3 uM incubated for 72 hrs by AnnexinV-FITC/PI staining based analysis (reference value: 98.95%); assay type: functional; conditions: read-out: Activity
HCT-116 [20] = assay: Induction of apoptosis in human HCT-116 cells assessed as early apoptotic cells at 0.3 uM incubated for 72 hrs by AnnexinV-FITC/PI staining based analysis (reference value: 1.05%); assay type: functional
HCT-116 [21] = assay: Induction of apoptosis in human HCT-116 cells assessed as late apoptotic cells at 0.3 uM incubated for 72 hrs by AnnexinV-FITC/PI staining based analysis (reference value: 0%); assay type: functional
HCT-116 [22] = assay: Induction of apoptosis in human HCT-116 cells assessed as viable cells at 1.5 uM incubated for 72 hrs by AnnexinV-FITC/PI staining based analysis (reference value: 98.95%); assay type: functional; conditions: read-out: Activity
HCT-116 [23] = assay: Induction of apoptosis in human HCT-116 cells assessed as early apoptotic cells at 1.5 uM incubated for 72 hrs by AnnexinV-FITC/PI staining based analysis (reference value: 1.05%); assay type: functional
HCT-116 [24] = assay: Induction of apoptosis in human HCT-116 cells assessed as early apoptotic cells at 7.5 uM incubated for 72 hrs by AnnexinV-FITC/PI staining based analysis (reference value: 1.05%); assay type: functional
HCT-116 [25] = assay: Induction of apoptosis in human HCT-116 cells assessed as late apoptotic cells at 7.5 uM incubated for 72 hrs by AnnexinV-FITC/PI staining based analysis (reference value: 0%); assay type: functional
HCT-116 [26] = assay: Induction of apoptosis in human HCT-116 cells assessed as necrotic cells at 7.5 uM incubated for 72 hrs by AnnexinV-FITC/PI staining based analysis (reference value: 0%); assay type: functional
HCT-116 [27] = assay: Induction of mitochondrial membrane potential loss in human HCT-116 cells assessed as increase in monomer JC-1 level by measuring green fluorescence intensity at 3 uM incubated for 48 hrs by immunofluorescence analysis; assay type: functional, cell-based
HCT-116 [28] = assay: Induction of mitochondrial membrane potential loss in human HCT-116 cells assessed as JC-1 aggregate level by measuring red fluorescence intensity at 0.3 uM incubated for 48 hrs by JC-1 staining based flow cytometry (reference value: 96.72%); assay type: functional
HCT-116 [29] = assay: Induction of mitochondrial membrane potential loss in human HCT-116 cells assessed as JC-1 monomer level by measuring green fluorescence intensity at 0.3 uM incubated for 48 hrs by JC-1 staining based flow cytometry (reference value: 3.28%); assay type: functional
HCT-116 [30] = assay: Induction of apoptosis in human HCT-116 cells assessed as increase in cleaved caspase-3 protein expression incubated for 48 hrs by western blot analysis; assay type: functional, cell-based; conditions: dose 0.3-3 µM
HCT-116 [31] = assay: Induction of apoptosis in human HCT-116 cells assessed as increase in cleaved PARP protein expression incubated for 48 hrs by western blot analysis; assay type: functional, cell-based; conditions: dose 0.3-3 µM
HCT-116 [32] = assay: Induction of apoptosis in human HCT-116 cells assessed as decrease in Bcl-2 protein expression incubated for 48 hrs by western blot analysis; assay type: functional, cell-based; conditions: dose 0.3-3 µM
HCT-116 [33] = assay: cells; conditions: Homo sapiens, HCT-116, 48 h

Poly [ADP-ribose] polymerase 1, sequence (P09874 whole entry): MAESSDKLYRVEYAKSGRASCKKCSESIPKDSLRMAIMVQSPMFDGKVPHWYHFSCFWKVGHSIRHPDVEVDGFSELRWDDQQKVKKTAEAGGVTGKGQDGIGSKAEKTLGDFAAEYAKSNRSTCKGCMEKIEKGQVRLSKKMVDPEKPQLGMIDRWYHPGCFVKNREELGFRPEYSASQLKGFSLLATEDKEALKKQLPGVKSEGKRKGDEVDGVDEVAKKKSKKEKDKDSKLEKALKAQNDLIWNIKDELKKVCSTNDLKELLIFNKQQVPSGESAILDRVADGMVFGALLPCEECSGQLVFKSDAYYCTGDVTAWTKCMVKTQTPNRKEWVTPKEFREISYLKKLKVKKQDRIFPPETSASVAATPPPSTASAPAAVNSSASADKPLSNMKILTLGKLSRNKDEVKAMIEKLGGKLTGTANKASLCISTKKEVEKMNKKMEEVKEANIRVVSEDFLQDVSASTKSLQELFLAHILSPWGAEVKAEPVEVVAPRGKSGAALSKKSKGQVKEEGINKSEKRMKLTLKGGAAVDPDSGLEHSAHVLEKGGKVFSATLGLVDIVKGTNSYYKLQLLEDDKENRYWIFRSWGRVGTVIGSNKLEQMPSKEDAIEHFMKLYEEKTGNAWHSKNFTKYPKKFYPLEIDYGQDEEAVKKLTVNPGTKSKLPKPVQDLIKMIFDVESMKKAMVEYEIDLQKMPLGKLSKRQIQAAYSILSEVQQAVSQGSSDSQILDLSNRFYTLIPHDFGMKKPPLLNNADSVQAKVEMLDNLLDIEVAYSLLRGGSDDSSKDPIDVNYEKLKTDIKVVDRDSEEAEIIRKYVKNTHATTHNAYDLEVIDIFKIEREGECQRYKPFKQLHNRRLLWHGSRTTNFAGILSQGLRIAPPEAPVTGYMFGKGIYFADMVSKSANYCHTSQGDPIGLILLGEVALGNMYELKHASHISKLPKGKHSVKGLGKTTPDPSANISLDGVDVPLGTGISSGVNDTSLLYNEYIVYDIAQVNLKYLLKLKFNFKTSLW

- IC50 (DLD-1): 2830 nM
- IC50 [1]: 0.25 nM
- IC50 (HCT-116 [33]): 300 nM
SMILES: NC(=O)c1ccccc1OCc1cccc(NC(=O)c2ccc(Br)cc2)c1
- inhibition at 1 µM (HCT-116 [2]): 18%
- inhibition at 3 µM (HCT-116 [3]): 22.3%
- Activity (HCT-116 [4]): 56.6%
- Activity (HCT-116 [5]): 10.4%
- Activity (HCT-116 [6]): 41%
- Activity (HCT-116 [7]): 22.4%
- Activity (HCT-116 [8]): 29.6%
- Activity (HCT-116 [9]): 45.1%
- Activity (HCT-116 [10]): 35.5%
- Activity (HCT-116 [11]): 34.4%
- Activity (HCT-116 [12]): 20.3%
- Activity (HCT-116 [13]): 45.5%
- viability at 0.3 µM (HCT-116 [14]): 90.4%
- Activity (HCT-116 [15]): 0.23%
- Activity (HCT-116 [16]): 2.97%
- Activity (HCT-116 [17]): 1.38%
- Activity (HCT-116 [18]): 1.19%
- viability at 0.3 µM (HCT-116 [19]): 76.3%
- Activity (HCT-116 [20]): 23.69%
- Activity (HCT-116 [21]): 0%
- viability at 1.5 µM (HCT-116 [22]): 69.3%
- Activity (HCT-116 [23]): 30.42%
- Activity (HCT-116 [24]): 79.44%
- Activity (HCT-116 [25]): 0.05%
- Activity (HCT-116 [26]): 0.01%
- Activity (HCT-116 [27]): Active
- Activity (HCT-116 [28]): 90.62%
- Activity (HCT-116 [29]): 9.38%
- Activity (HCT-116 [30]): Dose-Dependent Effect
- Activity (HCT-116 [31]): Dose-Dependent Effect
- Activity (HCT-116 [32]): Dose-Dependent Effect
